Results as given in patent publication US20250092360A1, “METHODS AND COMPOSITIONS FOR GENERATING SOMATOSTATIN+ INTERNEURONS FROM HUMAN FOREBRAIN NEURAL PROGENITOR CELLS” (Trailhead Biosystems Inc., priority 2023, published 2025).
Several values for one entry are separate records, joined by “and”; a condition that tells them apart may be missing. Equal values may be shown once. Entries after “also recorded” stand apart in the source; their conditions may differ.

Assays:
[1] = test system: stage 2 neural stem cells; assay: HD-DoE stage 3 experiment: ASCL1, LHX6, DLX1 expression; format: cell-based, human; conditions: for factor contribution, expression of ASCL1: positive, model optimized for maximum ASCL1 at 1700
Protocol: To further guide the cells to medial ganglionic eminence progenitor fate, an additional HD-DoE experiment was performed for 3 days on cells that were treated with stage 1 and stage 2 media for total of 6 days prior to start of the experiment. This experiment included 13 effectors, LDN193189, A8301, GNF5837, AZD3147, GSI-XX, Takinib, PD0325901, PD173074, BLU9931, IGF-1, MHY1485, Purmorphamine and Prostratin. In this model, we focused on maximum expression of genes expressed in neuronal progenitor cells in medial ganglionic eminence (MGE) region including ASCL1, LHX6 and DLX1 (Silberberg et al. (2016) Neuron 92:59-74). When the model was optimized for maximum expression of ASCL1 at 1700, A8301, GSI-XX, Purmorphamine and Takinib, which is an inhibitor of TAK1 pathway, had the highest factor contributions, 18.1, 14.1, 12.7 and 10.1 respectively. […] MHY 1485 also had positive contribution however the factor was below 2 (FIG. 9).
Therefore, six effectors including A8301, GSI-XX, Takinib, GNF5837, IGF-1 and Purmorphamine were finalized as ingredients of stage 3 differentiation media. A representative recipe for Stage 3 differentiation is summarized below in Table 3.

[2] = test system: medial ganglionic eminence (MGE)-derived neural progenitors; assay: Factor criticality analysis, stage 4 recipe; format: cell-based, human; conditions: FIG. 27, in words
Protocol: To assess the impact of elimination of each validated factor, dynamic profile analysis was again used to compare the expression levels of genes of interest in the absence of each finalized factor while the others were present in the media.
In the stage 4 recipe, each of the five finalized factors was removed while the other four factors remained present in the media and the expression level of forebrain genes was assessed compared to the presence of all 6 factors. SOX6 expression was reported to determine the cortical interneuron-precursors cell fate (see e.g., Azim et al. (2009) Nature Neurosci. 12:1238-1247; Batista-Brito et al. (2009) Neuron 63:466-481). Therefore, optimization of SOX6 expression was focused on at this stage.

[3] = test system: stage 2 neural stem cells; assay: Factor criticality analysis, stage 3 recipe; format: cell-based, human; conditions: other five stage 3 factors present; for expression level of DLX1 when the factor is removed: 220 with all six factors; for expression level of LHX6 when the factor is removed: 240 with all six factors; for expression level of ASCL1 when the factor is removed: 1650 with all six factors
Protocol: To assess the impact of the elimination of each validated factor, dynamic profile analysis was used and compared the expression level of genes of interest in absence of each finalized factor while others are present.
In the stage 3 recipe, each of the six finalized factors were removed while the other five factors remained present and the expression levels of ASCL1, DLX1 and LHX6 were assessed compared to the presence of all six factors. […] As expected, in the absence of IGF-1, the value of DLX1 increases to 410, however, ASCL1 and LHX6 decreased to 1390 and 220, respectively.

[4] = test system: medial ganglionic eminence (MGE)-derived neural progenitors; assay: HD-DoE stage 4, 12-factor experiment: SOX6 expression; format: cell-based, human; conditions: for impact on expression of SOX6: dynamic profile, in words; for factor contribution, expression of SOX6: positive impact, model optimized for maximal SOX6 at 1442
Text: These effectors are small chemical compounds or proteins. They are commonly used during the differentiation of stem cells to specific cell linage. The choice of the effectors was based on the current literature on forebrain neural induction and differentiation of neural progenitor cells to mature neurons.
To evaluate the effectors on SST differentiation, experiments with 8 or 12 factors were designed to assess the responses of cells to 48 or more combinations of effectors in a range of concentrations. To analyze the models, we focused on expression of genes involved in development and patterning of the forebrain interneurons maturation including LHX6 (Liodis et al. (2007) J. Neurosci. 27:3078-3089; Yuan et al. (2018) Elife 7: e37382), SOX6 (Azim et al. (2009) Nature Neurosci. 12:1238-1247; Batista-Brito et al. (2009) Neuron 63:466-481), DLX5 (de Lombares et al. (2019) Aging (Albany NY) 11:6638; Wang et al. (2010) J. Neurosci. 30:5334-5345) and ASCL1 (Barretto et al. (2020) J. Neurosci. Meth. 334:108548; Shi et al. (2016) J. Biol. Chem. 291:13560-13570). At later stages we focused on interneuron maturation genes including somatostatin and absence of Parvalbumin (Horn and Nicoll (2018) Proc. Natl. Acad. Sci. 115:589-594). The impacts of each effector on gene expression level are defined by a parameter called factor contribution that is calculated for each effector during the modeling.
To identify the recipe for differentiation at stage 4, at least 48 different combinations of effectors were robotically prepared by the Design-of-Experiments compression through D-optimality. The effector combinations were prepared in a basal media and were subsequently added to the cells, which were then allowed to differentiate. Three days later, RNA extraction was performed, and gene expression levels were examined using quantitative PCR analysis. The data was normalized and modeled using partial least squares regression analysis to the effector design, resulting in the generation of gene-specific models, which after model tuning for maximal predictive power, provided explanation of the effectors ability to control the expression of individual genes, combinatorically, and individually. Solutions within the tested space could then be explored to address desirability.
IGF-1 activates the IGF-1 pathway, promotes neuron axonal growth, and establishes the synapse of interneurons. GDNF is the […] and can activate the GDNF pathway. MK2206 is an AKT inhibitor and can inhibit cell proliferation and promote neuronal maturation. PD173074 and BLU-554 are FGFR inhibitors. The FGF pathway is required for the maintenance of neural progenitor cells. Inhibition of the FGFR pathway promotes neural maturation. GSI-XX is a notch pathway inhibitor. Notch pathway inhibits neural progenitor cell differentiation. Inhibition of the Notch pathway promotes neural differentiation.
To find the set of factors that have the potential to optimize SOX6 in this experiment, a new assessment was done through dynamic profile analysis with focus on maximal expression of SOX6.

[5] = test system: forebrain-committed neural stem cells; assay: HD-DoE stage 2, 12-factor experiment: NKX2-1 expression; format: cell-based, human; conditions: model / dynamic profile, in words
Protocol: To further guide the differentiation of forebrain-committed neural stem cells to ventral forebrain neural stem cells at stage 2, a HD-DoE experiment was performed for 3 days after termination of stage 1 treatment. […] This 12-factor experiment included LDN193189, BMP7, PD0325901, MK2206, A8301, XAV939, CHIR99021, Purmorphamine, SANT-1, AGN193109, TTNPB and GSI-XX. […]

[6] = test system: human pluripotent stem cells; assay: Factor criticality analysis, stage 1 recipe (dynamic profile analysis); format: cell-based; conditions: 3500 with all factors; FIG. 12
Text: To assess the impact of the elimination of each validated factor, dynamic profile analysis was used and compared the expression level of genes of interest in absence of each finalized factor while others are present. […] When Purmorphamine was removed, levels of FEZF2 and SIX3 were decreased to 1000 and below 3000, while levels of OTX2 increased to 6500.

[7] = test system: forebrain-committed neural progenitor cells; assay: HD-DoE stage 5, 8-factor experiment (JQ1, Indolactam-V ...): Somatostatin expression; format: cell-based, human
Protocol: To further guide the differentiation of forebrain-committed neural progenitor cells to somatostatin interneuron cells at stage 5, HD-DoE experiments were performed for 3 days after termination of stage 4 treatment. At this time, we focused on maximum expression of SST that was expressed in Somatostatin (+) interneurons and minimum expression of Parvalbumin that is another type of interneurons. This 8-factor experiment included JQ1, (−)-Indolactam-V, Oleic acid, BDNF, IGF-1, 2-phospho-L-Ascorbic acid, Albumax, MK2206. When the model was maximized for expression of Somatostatin, six effectors were identified that could increase its expression levels, including (−)-Indolactam-V, Oleic acid, BDNF, 2-phospho-L-ascorbic acid, Albumax, and MK2206, as shown in FIG. 21. Using dynamic profile analysis, the results of which are shown in FIG. 22, the model was modified to achieve the maximum expression level of Somatostatin and therefore (−)-Indolactam-V, BDNF, and 2-phospho-L-ascorbic acid were included while JQ-1, Oleic acid, Albumax and MK2206 were excluded. Considering the model at different optimization settings for maximum differentiation of cells toward ventral forebrain, the recipe for stage 5 of differentiation included (−)-Indolactam-V, BDNF, IGF-1, and 2-phospho-L-ascorbic acid from this HD-Doe experiment.

[8] = test system: human pluripotent stem cells; assay: HD-DoE stage 1, additional experiment: FEZF2 expression; format: cell-based
Protocol: To identify the recipe for stage 1 of differentiation, 96 different combinations of effectors generated using Design-of-Experiments compression through D-optimality were robotically prepared. The effector combinations were prepared in a basal media and were subsequently added to the cells, which were then allowed to differentiate. Three days later RNA extraction was performed, and gene expression was obtained using quantitative PCR analysis. The data were normalized and modeled using partial least squares regression analysis to the effector design, resulting in the generation of gene-specific models, which after model tuning for maximal Q2 predictive power, provided explanation of the effectors ability to control the expression of individual genes, combinatorically, and individually. Solutions within the tested space could then be explored to address desirability. To further enhance the conditions for forebrain differentiation from pluripotency, an additional HD-DoE experiment was performed. Additional gene regulatory models were obtained that were used for preparation of the differentiation protocol. The factors in this experiment included LDN193189, PD173074, BLU9931, Purmorphamine, SC79, MK2206, ZM336372, PD0325901, CHIR99021, XAV939, UCLA-GP130, Tofacitinib and GO6983. […] Dynamic profile analysis was also used to assess the interaction between the effectors.

[9] = test system: forebrain-committed neural progenitor cells; assay: HD-DoE stage 5, 8-factor experiment (GDNF, BDNF, NT-3 ...): Somatostatin expression; format: cell-based, human; conditions: FIG. 24 dynamic profile, in words
Protocol: To investigate the effects of other factors on differentiation of forebrain-committed neural progenitor cells to Somatostatin interneuron cells, an additional HD-DoE experiment was performed for 3 days on cells that were treated with stage 1 to stage 4 medium for a total of 12 days prior to the new experiment. This experiment, the results of which are shown in FIG. 23, included eight effectors, GDNF, BDNF, NT-3, ß-NGF, Linoleic acid, 5-Cholesten-3β, LIF and TGF-β3. In this model, we focused on maximum expression of Somatostatin gene expressed in Somatostatin (+) interneurons (Urban-Ciecko and Barth (2016) Nature Reviews Neurosci. 17:401-409). When the model was optimized for maximum expression of Somatostatin, BDNF, NT-3, beta-NGF and Linoleic acid had the highest factor contributions, 25.7, 2, 19.9, 23.5, respectively.
Therefore, the latter were excluded in the recipe.

| Molecule | impact on expression of ASCL1 ([1]; dynamic profile, in words) | impact on expression of LHX6 ([1]; dynamic profile, in words) | factor contribution, expression of ASCL1 [1] | effect on PVALB expression [2] | effect on SOX6 expression [2] | effect on Somatostatin expression [2] | expression level of DLX1 when the factor is removed [3] | expression level of LHX6 when the factor is removed [3] | expression level of ASCL1 when the factor is removed [3] | impact on expression of SOX6 [4] | factor contribution, expression of SOX6 [4] | impact on expression of NKX2-1 [5] | expression level of FEZF2 when the factor is removed [6] | impact on expression of Somatostatin ([7]; FIG. 21/22, in words) | factor contribution, expression of Somatostatin ([7]; positive, 8-factor experiment of FIG. 21) | impact on expression of FEZF2 ([8]; dynamic profile, in words) | factor contribution, expression of FEZF2 ([8]; positive impact, additional stage 1 experiment optimized for FEZF2) | impact on expression of DLX1 ([1]; dynamic profile, in words) | impact on expression of Somatostatin [9] |
| --- | --- | --- | --- | --- | --- | --- | --- | --- | --- | --- | --- | --- | --- | --- | --- | --- | --- | --- | --- |
| C[C@H](NC(=O)Cc1cc(F)cc(F)c1)C(=O)N[C@@H]1C(=O)N(C)c2ccccc2-c2ccccc21 [GSI-XX] | Positive impact | Positive impact | 14.1 and 14 | minimal effect | increase | contribute | 50 | 140 | 1200 | positive impact | 3.6 | increase |  |  |  |  |  |  |  |
| NC1(c2ccc(-c3nc4ccn5c(=O)[nH]nc5c4cc3-c3ccccc3)cc2)CCC1 [MK2206] |  |  |  | decrease | increase |  |  |  |  | positive impact | 7.2 | increase | 2700 | increase; also recorded: positive impact | 4.2 | positive impact | 11 and 12.2 |  |  |
| IGF-1: Growth factor; activates the IGF-1 pathway | positive effect | positive effect | 7 |  | increase |  | 410 | 220 | 1390 | positive impact | 2.9 |  |  |  |  |  |  | negative impact |  |
| GDNF: Glial cell line-derived neurotrophic factor; can activate the GDNF pathway (protein, UniProt P39905 78-211, looked up) Glial cell line-derived …: SPDKQMAVLPRRERNRQAAAANPENSRGKGRRGQRGKNRGCVLTAIHLNVTDLGLGYETKEELIFRYCSGSCDAAETTYDKILKNLSRNRRLVSDKVGQACCRPIAFDDDLSFLDDNLVYHILRKHSAKRCGCI |  |  |  |  | increase |  |  |  |  | positive impact | 21 |  |  |  |  |  |  |  | negative impact |
